Legend:
[1] = Rat hemorrhagic shock, hypertonic saline resuscitation: cardiovascular response (MAP, HR, CO, SVR); assay type: in vivo; settings: for heart rate (HR): 60 minutes after resuscitation
Experimental: Animals. Male Sprague-Dawley rats (340 to 380 g) (Envigo, Indianapolis, IN) were housed for at least 4 days in a room with controlled temperature (23±1° C.), humidity (50±10%) and light (6:00 A.M. to 6:00 P.M.) before being used. Food and water were made available continuously. Animal care and use for experimental procedures were approved by the Institutional Animal Care and Use Committee of the Midwestern University. All anesthetic and surgical procedures were in compliance with the guidelines established by the Animal Care Committee.
Determination of cardiovascular response. The animals were anesthetized with urethane dissolved in isotonic saline. Urethane was administered in a dose of 1.5 g per kg body weight via intraperitoneal injection. Urethane was selected as an anesthetic agent, because it produces long lasting (8-10 hours) anesthesia with minimal cardiovascular and respiratory system depression. It produces a level of surgical anesthesia characterized by preservation of cardiovascular reflexes (Maggi and Meli 1986). Briefly, anaesthetized rats were immobilized on a surgical board equipped with controlled heating pad. Blood PO2, Pco2 and pH, were maintained using a tracheotomy cannula connected to a rodent ventilator (Model 683, Harvard Apparatus Inc., Holliston, MA). The right carotid artery was exposed to measure the left ventricular performance. Surgical suture (Deknatel, Research Triangle Park, NC) was secured around the proximal end of the carotid artery and an ultra-miniature pressure-volume (P-V) catheter SPR-869 (Millar Instruments, Houston, TX) was inserted through a tiny incision made near the proximal end of the artery. The P-V terminal of the catheter was connected to MPVS-300 P-V unit through PEC-4D and CEC-4B cables and advanced into the left ventricle to obtain the P-V signals. The signals were continuously aquired (1000 S^−1) using the MPVS-300 P-V unit (AD Instruments, Mountain View, CA, USA) and PowerLab 16/30 data acquisition system (AD Instruments). MAP and HR were measured by cannulating the left femoral artery with pressure catheter SPR-320 (Millar Instruments), connected to the ML221 bridge amplifier (AD Instruments) through AEC-10C connector and the signals were acquired (1000 S^−1) using PowerLab 16/30 data acquisition system (Gulati et al. 2012; Pacher et al. 2008). The left femoral vein was cannulated using PE 50 tubing (Clay Adams, Parsipanny, NJ) and secured for resuscitation.
(§1) Induction of Hemorrhagic Shock. Hemorrhage was induced by withdrawing blood from the femoral artery at a rate of approximately 0.5 to 1 mL/min until a MAP of 35 mmHg was reached. This MAP was maintained for 30 min by further withdrawal of blood, if necessary. The hemorrhagic shock model used in the present study is a well-established rodent model of manageable pressure hemorrhage (Buehler et al. 2000; Gulati et al. 1997a; Gulati and Sen 1998). The volume of blood loss was about approximately 8.0 ml in each rat and was similar in various groups, amounting to approximately 40% of the total blood. Measured hematocrit levels were similar in various groups. The duration of blood withdrawal was approximately 15 minutes.
Experimental design. To determine the resuscitative effect of centhaquin on cardiovascular system and plasma cytokines in hemorrhagic shock, rats were randomly divided into five groups, Group 1: Sham control (Non-hemorrhaged) (n=5), Group 2: Hemorrhage with no resuscitation (n=5); Group 3: Hemorrhage followed by resuscitation with 3% hypertonic saline (vehicle) (n=5); Group 4: Hemorrhage followed by resuscitation with vehicle plus centhaquin (0.017 mg/kg) (n=5); and Group 5: Hemorrhage followed by resuscitation with vehicle plus centhaquin (0.05 mg/kg) (n=5). Resuscitation was started 30 min after induction of hemorrhagic shock as an intravenous infusion (1 mL/min) through femoral vein using an infusion pump (Harvard Apparatus Infusion/Withdrawal Pump, Millis, MA). […]

[2] = test system: ETB receptors; experiment: ETB receptor expression in tissues of hemorrhaged rats (western blot); assay type: in vivo, rat; settings: for change in ETB receptor expression, abdominal aorta / change in ETB receptor expression, kidney medulla: compared to untreated hemorrhaged rats
Experimental: as §1
Experimental design. To determine the resuscitative effect of centhaquin on cardiovascular system and plasma cytokines in hemorrhagic shock, rats were randomly divided into five groups, Group 1: Sham control (Non-hemorrhaged) (n=5), Group 2: Hemorrhage with no resuscitation (n=5); Group 3: Hemorrhage followed by resuscitation with 3% hypertonic saline (vehicle) (n=5); Group 4: Hemorrhage followed by resuscitation with vehicle plus centhaquin (0.017 mg/kg) (n=5); and Group 5: Hemorrhage followed by resuscitation with vehicle plus centhaquin (0.05 mg/kg) (n=5). Resuscitation was started 30 min after induction of hemorrhagic shock as an intravenous infusion (1 mL/min) through femoral vein using an infusion pump (Harvard Apparatus Infusion/Withdrawal Pump, Millis, MA). The blood samples, for biochemical estimations, were collected at 30 minutes of resuscitation and cardiovascular parameters were monitored till 60 minutes after which the animal was sacrificed. The volume of resuscitative solution was kept equal to the volume of blood loss.
Estimation of ETA and ETB receptor expression. Expression of ETA and ETB receptors was determined using the western blotting technique (Briyal et al. 2015; Leonard and Gulati 2013) with some modifications. After completion of cardiovascular experiments animals were sacrificed and the organs (brain, heart, liver, lung, kidney and abdominal aorta) were immediately dissected out, flash frozen on dry ice, and stored at −80° C. for further analysis. The tissue was homogenized with 10×(w/v) RIPA lysis buffer (20 mM Tris-HCl pH 7.5, 120 mM NaCl, 1.0% TritonX-100, 1.0% sodium deoxycholate, 0.1% sodium dodecyl sulfate (SDS), 10% glycerol, 1 mM disodium ethylene diamine tetraacetic acid (EDTA), 1 mM ethylene glycol-bis(β-aminoethyl ether)-N,N,N′,N′-tetraacetic acid tetrasodium salt (EGTA), phosphatase inhibitors and Complete Mini Protease inhibitor cocktail tablet (Roche Diagnostics, Indianapolis, IN). Proteins were isolated in solubilized form and concentrations were measured by Folin-Ciocalteu's phenol reagent (Lowry et al. 1951). Solubilized protein (60 μg) was denatured in Laemmli sample buffer (Bio-Rad Laboratories, Hercules, CA), resolved on 10% sodium dodecyl sulfate-polyacrylamide gel electrophoresis (SDS-PAGE) and then transferred onto the nitrocellulose membrane followed by blocking the membrane with SuperBlock® Blocking Buffer in tris-buffered saline (TBS) (ThermoFisher Scientific, Hanover Park, IL). The membranes were washed three times with 1×TBS-Tween (TBST) and incubated with rabbit polyclonal anti-ETA receptor (ab85163, Abcam, Cambridge, MA, 1:1000) or anti-ETB receptor (ab117529, Abcam, Cambridge, MA, 1:1000) or mouse monoclonal anti-β-actin (a1978, Sigma-Aldrich, St. Louis, MO) antibodies, followed by horseradish peroxidase (HRP)-conjugated secondary antibodies goat anti-rabbit (sc2004, Santa Cruz Biotechnology, Dallas, TX, 1:2000) or goat anti-mouse (ab98693, Abcam, Cambridge, MA, 1:10,000) and visualized by SuperSignal® West Pico Chemiluminescent Substrate (ThermoFisher Scientific, Hanover Park, IL) using the ChemiDoc™ MP Imaging System (Bio-Rad Laboratories, Hercules, CA) and then analyzed using ImageJ (NIH) software.

SMILES: Cc1cccc(N2CCN(CCc3ccc4ccccc4n3)CC2)c1 [centhaquin, 2-[2-(4-(3-methyphenyl)-1-piperazinyl)]ethyl-quinoline]
- cardiac output (CO) compared to hypertonic saline alone ([1]; 30 and 60 min post resuscitation): significantly increased
- systemic vascular resistance (SVR) ([1]; 30 and 60 minutes of resuscitation, versus post-hemorrhage): further decreased
- heart rate (HR) ([1]; centhaquin 0.017 mg/kg): 361±10 beats/min
- heart rate (HR) ([1]; centhaquin 0.05 mg/kg): 363±10 beats/min
- mean arterial pressure (MAP) post resuscitation ([1]; centhaquin 0.017 and 0.05 mg/kg, for at least 60 min, p<0.01): significant increase
- difference in HR following resuscitation ([1]; hypertonic saline or centhaquin): No significant difference
- change in ETB receptor expression, abdominal aorta ([2]; centhaquin 0.017 mg/kg): 79.7%
- change in ETB receptor expression, kidney medulla ([2]; centhaquin 0.017 mg/kg): 76.6%
- change in ETB receptor expression, abdominal aorta ([2]; centhaquin 0.05 mg/kg): 57.4%
- change in ETB receptor expression, kidney medulla ([2]; centhaquin 0.05 mg/kg): 69.4%
- change in ETB expression, abdominal aorta (summary) ([2]; dose not given): 79%
- ETB receptor expression in brain, heart, liver, lungs and kidney cortex ([2]; hemorrhage and resuscitation): no change
- shock-induced decrease (−34%) in ETB expression, renal medulla ([2]; summary, not attenuated by saline): completely attenuated
